# From ChEMBL document CHEMBL1132007, “The synthesis and biological evaluation of non-peptidic matrix metalloproteinase inhibitors” (Bioorg Med Chem Lett, 1999)
# Key:
# Interstitial collagenase = molecular target: T1, Interstitial collagenase (Homo sapiens, UniProt P03956)
# T1 sequence (P03956 whole entry): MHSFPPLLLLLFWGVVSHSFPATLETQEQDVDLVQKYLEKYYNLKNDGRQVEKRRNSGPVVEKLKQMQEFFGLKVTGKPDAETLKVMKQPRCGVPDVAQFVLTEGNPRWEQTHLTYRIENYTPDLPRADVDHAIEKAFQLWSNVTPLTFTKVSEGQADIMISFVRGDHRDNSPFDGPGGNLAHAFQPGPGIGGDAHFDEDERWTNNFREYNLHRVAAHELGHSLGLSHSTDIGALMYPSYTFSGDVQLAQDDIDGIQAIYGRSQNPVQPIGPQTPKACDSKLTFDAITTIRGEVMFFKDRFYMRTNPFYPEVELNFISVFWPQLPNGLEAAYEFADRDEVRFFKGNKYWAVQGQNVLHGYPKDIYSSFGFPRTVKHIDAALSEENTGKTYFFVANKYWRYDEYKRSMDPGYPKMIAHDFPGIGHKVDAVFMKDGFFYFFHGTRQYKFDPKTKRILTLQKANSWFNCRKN
# Neutrophil collagenase = Neutrophil collagenase (Homo sapiens, UniProt P22894)
# Rattus norvegicus = organism: Rattus norvegicus; settings: in vivo, po
# in vivo = settings: rat, po
# [1] = molecular target: Stromelysin-1 (Homo sapiens) (UniProt P08254)
# Chain of Stromelysin-1 (Homo sapiens) (P08254 whole entry, looked up): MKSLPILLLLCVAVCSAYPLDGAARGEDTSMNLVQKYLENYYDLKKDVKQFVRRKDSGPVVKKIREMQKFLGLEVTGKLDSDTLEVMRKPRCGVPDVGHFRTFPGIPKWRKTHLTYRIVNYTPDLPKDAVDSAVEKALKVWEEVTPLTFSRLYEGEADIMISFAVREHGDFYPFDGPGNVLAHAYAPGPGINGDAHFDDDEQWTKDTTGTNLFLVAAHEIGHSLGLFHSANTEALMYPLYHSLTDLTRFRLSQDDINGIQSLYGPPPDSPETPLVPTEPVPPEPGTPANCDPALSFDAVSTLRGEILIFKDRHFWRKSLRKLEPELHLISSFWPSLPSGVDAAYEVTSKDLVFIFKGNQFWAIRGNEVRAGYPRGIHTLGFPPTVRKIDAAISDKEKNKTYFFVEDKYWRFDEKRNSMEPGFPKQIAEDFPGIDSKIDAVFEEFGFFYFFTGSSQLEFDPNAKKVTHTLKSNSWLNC
# Chain of Neutrophil collagenase (P22894 whole entry): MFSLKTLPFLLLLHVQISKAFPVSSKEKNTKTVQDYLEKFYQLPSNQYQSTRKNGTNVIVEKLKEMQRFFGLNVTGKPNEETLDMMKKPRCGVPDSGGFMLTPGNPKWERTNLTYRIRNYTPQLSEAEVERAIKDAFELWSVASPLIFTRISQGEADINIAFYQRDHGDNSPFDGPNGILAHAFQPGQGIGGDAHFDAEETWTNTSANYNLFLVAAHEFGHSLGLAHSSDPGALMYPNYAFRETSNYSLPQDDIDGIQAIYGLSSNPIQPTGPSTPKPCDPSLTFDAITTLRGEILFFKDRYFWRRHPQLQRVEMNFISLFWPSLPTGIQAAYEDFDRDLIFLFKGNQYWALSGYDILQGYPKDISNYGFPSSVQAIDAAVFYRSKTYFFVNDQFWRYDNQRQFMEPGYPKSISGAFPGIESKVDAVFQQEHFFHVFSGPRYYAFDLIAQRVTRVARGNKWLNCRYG
SMILES,IC50 (Interstitial collagenase),further results
CN(C[C@H](C(=O)NO)[C@@H](CC1CCCC1)C(=O)N1CCCCC1)S(=O)(=O)c1cccc2ccccc12,6 nM,–
CN(C[C@H](C(=O)NO)[C@@H](CC1CCCC1)C(=O)N1CCOCC1)S(C)(=O)=O,5 nM,–
CS(=O)(=O)N(C[C@H](C(=O)NO)[C@@H](CC1CCCC1)C(=O)N1CCCCC1)C1CC1,10 nM,–
CC(C)C[C@@H](C(=O)N1CCOCC1)[C@H](CN1C(=O)c2ccccc2C1=O)C(=O)NO,20 nM,IC50 (Neutrophil collagenase): 600 nM
CN(C[C@H](C(=O)NO)[C@@H](CC1CCCC1)C(=O)N1CCCCC1)S(C)(=O)=O,–,AUC (Rattus norvegicus): 662 ng·h/mL; Cmax at 0.5 h (in vivo): 172 ng/mL
CC(C)C[C@@H](C(=O)N1CCCCC1)[C@H](O)C(=O)NO,800 nM,IC50 (Neutrophil collagenase): 1000 nM; IC60 [1]: 100 µM
CC(C)C[C@@H](C(=O)N(C)C)[C@H](CN(C)S(C)(=O)=O)C(=O)NO,1000 nM,–
CC(C)C[C@@H](C(=O)N1CCCCC1)[C@H](CN(C)S(C)(=O)=O)C(=O)NO,60 nM,–
COc1ccc(S(=O)(=O)N(C)C[C@H](C(=O)NO)[C@@H](CC2CCCC2)C(=O)N2CCOCC2)cc1,10 nM,–
CN(C[C@H](C(=O)NO)[C@@H](CC1CCCC1)C(=O)N1CCCCC1)S(=O)(=O)c1ccc(Cl)cc1,9 nM,–
